Measurements reported in patent publication US20150344407A1, “FENDILINE DERIVATIVES AND METHODS OF USE THEREOF” (THE BOARD OF REGENTS OF THE UNIVERSITY OF TEXAS SYSTEM, priority 2012, published 2015).
Counter-ions that a name gives are not always drawn.

Experiments:
[1] = system: phosphorylated ERK, a protein activated downstream of K-ras; test: Western immunoblotting for pERK (inhibition of ERK activation); format: cell-based, canine; conditions: Canis lupus familiaris; 4 μM compound, 48 hours, MDCK cells stably expressing GFP-tagged K-rasG12V; whole cell lysates; normalized to vehicle-treated control; read-out: % Inhibition of ERK activation when treated with 4 μM compound
Description: (§1) To determine the effect of compounds on localization of K-ras, Mardine Darby canine kidney epithelial (MDCK) cells stably expressing GFP-tagged K-rasG12V (oncogenic K-ras) grown on cover slips were treated with vehicle or compound (4 μM) for 48 hours and fixed with 4% paraformaldehyde. The coverslips were mounted in Mowiol and imaged by confocal microscopy (Nikon A1) using a 60× objective. Images were analyzed by ImageJ software. Densitometric analysis was performed on images to determine the degree of K-ras mislocalization. To determine the effect of compounds on K-ras function, MDCK cells stably expressing GFP-tagged K-rasG12V were treated with vehicle or compound (4 μM) for 48 hours. Following treatment, whole cell lysates were prepared and subjected SDS-PAGE and western blotting to quantify the level of phosphorylated ERK, a protein activated downstream of K-ras. All calculations were normalized to vehicle-treated control.
Western Immunoblotting for pERK: 2×10^5 cells/well were seeded in 6-well cell culture plates. 24 h after seeding, fresh medium containing 1% vehicle (DMSO) or 4 μM test compound (1:100 dilution, such that DMSO was 1%) was added and incubated for 48 h. Cells were lysed in Buffer B (50 mM Tris [pH 7.5], 75 mM NaCl, 25 mM NaF, 5 mM MgCl2, 5 mM EGTA, 1 mM dithiothreitol, 100 μM NaVO4, 1% Nonidet P-40 plus protease inhibitors). SDS-PAGE and immunoblotting with the anti-phospho-p44/42 mitogen-activated protein kinase (MAPK) (ERK1/2) antibody was performed using 20 μg of each whole cell lysate. Signal was detected by enhanced chemiluminescence (SuperSignal; Pierce, Thermo Fisher Scientific, Rockford, Ill.) and imaged by FluorChemQ (Alpha Inotech, San Leandro, Calif.). Quantification of intensities was performed using FluorChemQ software. Results were normalized to vehicle-treated control.

[2] = target: T1, GFP-tagged K-rasG12V (oncogenic K-ras) in MDCK cells (Homo sapiens, UniProt P01116, G12V); test: K-ras mislocalization, confocal fluorescence microscopy with densitometric analysis; format: cell-based, canine; conditions: 48 hours, MDCK cells stably expressing GFP-tagged K-rasG12V, normalized to vehicle-treated control; for inhibition at 4 µM: 4 μM compound, read-out: % Mislocalization of K-ras when treated with 4 μM compound
T1 construct: mGFP-tagged full length oncogenic mutant K-Ras (GFP-K-RasG12V); expressed in transfected cells
Description: FIGS. 1 & 2—Representative images showing degree of K-ras mislocalization with compound treatment (images corresponds with column 3 of Table 2). MDCK cells stably expressing GFP-tagged K-rasG12V were treated with vehicle or compound (4 μM) for 48 hours and fixed with 4% paraformaldehyde. The coverslips were mounted in Mowiol and imaged by confocal microscopy (Nikon A1) using a 60× objective. The number above each image corresponds the fendiline derivative code.
as §1
Fluorescence microscopy: 2×10^5 or 1×10^5 cells/well were seeded in 6- or 12-well cell culture plates, respectively, containing glass coverslips. 24 h after seeding, fresh medium containing 1% vehicle (Dimethyl sulfoxide, DMSO) or 4 μM test compound (1:100 dilution, such that DMSO was 1%) was added and incubated for 48 h, following which the cells were fixed with 4% paraformaldehyde and coverslips were mounted in Mowiol. Cells were imaged in the GFP wavelength (488 nm) using a confocal microscope (Nikon A1) with 60× objective. Images were saved in tagged imaged file format (tiff) and analyzed by ImageJ software. The densitometric ratio of plasma membrane localized K-Ras versus total K-Ras was calculated and normalized to vehicle-treated control.

| inhibition at 4 µM [2] [%] | % Mislocalization of K-ras when treated with 4 μM compound [2] [%] | SMILES | inhibition at 4 µM [1] [%] |
| --- | --- | --- | --- |
| 12.3 | – | C[C@@H](NC/C=C(\c1ccccc1)c1ccc([N+](=O)[O-])cc1)c1ccccc1 [Compound 55, (R,E)-3-(4-nitrophenyl)-3-phenyl-N-(1-phenylethyl)prop-2-en-1-amine] | -36.6 |
| 34 | – | C[C@@H](NCC=C(c1ccccc1)c1ccccc1)c1ccc([N+](=O)[O-])cc1 [Compound 47] | 70.6 |
| 12.5 | – | C[C@@H](NC/C=C/c1cccc2ccccc12)c1ccccc1 [Compound 32, (R,E)-3-(naphthalen-1-yl)-N-(1-phenylethyl)prop-2-en-1-amine] | 31.7 |
| 13.2 | – | CC(C(=O)NCC(c1ccccc1)c1ccccc1)c1ccccc1 (centres unmarked) [Compound 02] | – |
| 20.2 | – | c1ccc(CNCCC(c2ccccc2)c2ccccc2)cc1 [Compound 10, N-benzyl-3,3-diphenylpropan-1-amine] | – |
| 1.53 | – | C[C@@H](NC/C=C/c1ccc2ccccc2c1)c1ccccc1 [Compound 33, (R,E)-3-(naphthalen-2-yl)-N-(1-phenylethyl)prop-2-en-1-amine] | 15.7 |
| 23.3 | – | CC(NC(=O)CC(c1ccccc1)c1ccccc1)c1cccs1 (centres unmarked) [Compound 14, 3,3-diphenyl-N-(1-(thiophen-2-yl)ethyl)propanamide] | – |
| 39.3 | – | C[C@@H](NCC=C(c1ccccc1)c1ccccc1)c1ccccc1 [Compound 16, (R)-3,3-diphenyl-N-(1-phenylethyl)prop-2-en-1-amine] | 58.4 |
| 34.9 | – | CC(C)=CCC/C(C)=C/CC/C(C)=C/CN[C@H](C)c1ccccc1 [Compound 28, (2E,6E)-3,7,11-trimethyl-N—((R)-1-phenylethyl)dodeca-2,6,10-trien-1-amine] | 38 |
| 45.2 | – | CC(NCC=C(c1ccccc1)c1ccccc1)c1ccc(F)cc1 (centres unmarked) [Compound 27, N-(1-(4-fluorophenyl)ethyl)-3,3-diphenylprop-2-en-1-amine] | 49.3 |
| 8.14 | – | C[C@@H](OCC=C(c1ccccc1)c1ccccc1)c1ccccc1 [Compound 22, (R)-(3-(1-phenylethoxy)prop-1-ene-1,1-diyl)dibenzene] | -14.4 |
| 18 | – | C[C@@H](OC/C=C/c1ccccc1)c1ccccc1 [Compound 24, (R,E)-(1-(cinnamyloxy)ethyl)benzene] | 7.19 |
| 12.7 | – | COC(=O)[C@H](NCC=C(c1ccccc1)c1ccccc1)c1ccc(F)cc1 [Compound 57, (R)-methyl 2-((3,3-diphenylallyl)amino)-2-(4-fluorophenyl)acetate] | -105 |
| 30.1 | – | COC(=O)[C@@H](NCC=C(c1ccccc1)c1ccccc1)c1ccccc1 [Compound 43, (S)-methyl 2-((3,3-diphenylallyl)amino)-2-phenylacetate] | 38.4 |
| 6.72 | – | COC(=O)[C@@H](NC/C=C/c1ccccc1)c1ccccc1 [Compound 39, (S)-methyl 2-(cinnamylamino)-2-phenylacetate] | -10.2 |
| 17.3 | – | C[C@@H](NC/C=C(\c1ccccc1)c1ccc(N)cc1)c1ccccc1 [Compound 56, (R,E)-4-(1-phenyl-3-((1-phenylethyl)amino)prop-1-en-1-yl)aniline] | -191 |
| 37.7 | – | CC(NCC=C(c1ccccc1)c1ccccc1)c1ccccc1 (centres unmarked) [Compound 12, 3,3-diphenyl-N-(1-phenylethyl)prop-2-en-1-amine hydrochloride] | 55.1 |
| 33.9 | – | C[C@H](OC/C=C/c1ccccc1)c1ccccc1 [Compound 25, (S,E)-(1-(cinnamyloxy)ethyl)benzene] | 56.8 |

| inhibition at 4 µM [2] [%] | % Mislocalization of K-ras when treated with 4 μM compound [2] [%] | SMILES | inhibition at 4 µM [1] [%] |
| --- | --- | --- | --- |
| 17.6 | – | C[C@@H](NC/C=C/c1ccccc1)c1ccccc1 [Compound 18, (R,E)-3-phenyl-N-(1-phenylethyl)prop-2-en-1-amine] | -2.54 |
| 6.82 | – | C/C=C(/CN[C@H](C)c1ccccc1)c1ccccc1 [Compound 37, (R,E)-2-phenyl-N-(1-phenylethyl)but-2-en-1-amine] | 18.9 |
| 6.61 | – | C[C@@H](NC/C=C(/c1ccccc1)c1ccc(N)cc1)c1ccccc1 [Compound 50, (R,Z)-4-(1-phenyl-3-((1-phenylethyl)amino)prop-1-en-1-yl)aniline] | 22.6 |
| 37 | – | CCC(NCC=C(c1ccccc1)c1ccccc1)c1ccccc1 (centres unmarked) [Compound 29, 3,3-diphenyl-N-(1-phenylpropyl)prop-2-en-1-amine hydrochloride] | 40.3 |
| 21.9 | – | CC(CNCC(c1ccccc1)c1ccccc1)c1ccccc1 (centres unmarked) [Compound 07, N-(2,2-diphenylethyl)-2-phenylpropan-1 amine hydrochloride] | – |
| 38.1 | – | C[C@@H](NCC=C(c1ccccc1)c1ccccc1)c1ccc(Br)cc1 [Compound 44, (R)—N-(1-(4-bromophenyl)ethyl)-3,3-diphenylprop-2-en-1-amine] | 38.1 |
| 14.6 | – | CC(C)=CCC/C(C)=C/CO[C@H](C)c1ccccc1 [Compound 20, (R,E)-(1-((3,7-dimethylocta-2,6-dien-1-yl)oxy)ethyl)benzene] | -5.12 |
| 10.3 | – | C[C@H](OCC=C(c1ccccc1)c1ccccc1)c1ccccc1 [Compound 23, (S)-(3-(1-phenylethoxy)prop-1-ene-1,1-diyl)dibenzene] | -0.95 |
| 26.5 | – | CC(CNCC=C(c1ccccc1)c1ccccc1)c1ccccc1 (centres unmarked) [Compound 30, 3,3-diphenyl-N-(2-phenylpropyl)prop-2-en-1-amine] | 49.1 |
| 8.29 | – | CC(C)=CCC/C(C)=C/CN[C@H](C)c1ccccc1 [Compound 21, (R,E)-3,7-dimethyl-N-(1-phenylethyl)octa-2,6-dien-1-amine] | 3.75 |
| 44.8 | – | CC(NCC=C(c1ccccc1)c1ccccc1)c1ccc(Br)cc1 (centres unmarked) [Compound 26, N-(1-(4-bromophenyl)ethyl)-3,3-diphenylprop-2-en-1-amine] | 43.5 |
| 8.27 | – | C[C@H](NCC=C(c1ccccc1)c1ccccc1)c1ccccc1 [Compound 17, (S)-3,3-diphenyl-N-(1-phenylethyl)prop-2-en-1-amine] | -51.9 |
| 4.01 | – | O=C(CC(c1ccccc1)c1ccccc1)NCc1ccccc1 [Compound 05, N-benzyl-3,3-diphenylpropanamide] | – |
| – | 20.41 | C[C@H](NCCC(c1ccccc1)c1ccccc1)c1ccccc1.Cl [Compound 09, (S)-3,3-diphenyl-N-(1-phenylethyl)propan-1-amine hydrochloride] | – |
| 25.1 | – | CC(NCCC(c1ccccc1)c1ccccc1)c1cccs1 (centres unmarked) [Compound 15, 3,3-diphenyl-N-(1-(thiophen-2-yl)ethyl)propan-1-amine hydrochloride] | – |
| 9.73 | – | C[C@H](NC(=O)CC(c1ccccc1)c1ccccc1)c1ccccc1 [Compound 04, (S)-3,3-diphenyl-N-(1-phenylethyl)propanamide] | – |
| 28.9 | – | CC(NC(=O)CCc1ccccc1)c1ccccc1 (centres unmarked) [Compound 06, 3-phenyl-N-(1-phenylethyl)propanamide] | – |
| 25.8 | – | C[C@@H](NC(=O)CC(c1ccccc1)c1ccccc1)c1ccccc1 [Compound 03, (R)-3,3-diphenyl-N-(1-phenylethyl)propanamide] | – |
